Laboratory results from ChEMBL document CHEMBL1201861, “Genomics of Drug Sensitity in Cancer screening data, Wellcome Trust Sanger Institute”.
pIC50: −log10 of the molar value.

Columns and labels:
Experiment in all cases: cells
BEN = type: functional, cell-based, Homo sapiens; conditions: Homo sapiens, BEN;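 also: growth inhibition of the BEN cell line, read out with a cell viability assay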
Description: SANGER: Inhibition of human BEN cell growth in a cell viability assay.

C8166 = type: functional, cell-based; conditions: Homo sapiens;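 also: growth inhibition of human C8166 cells measured by a cell viability assay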
Description: SANGER: Inhibition of human C8166 cell growth in a cell viability assay.

EFO-21 = type: functional, cell-based, Homo sapiens; conditions: Homo sapiens, EFO-21;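 also: growth inhibition of EFO-21 cells measured with a viability assay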
Description: SANGER: Inhibition of human EFO-21 cell growth in a cell viability assay.

KYSE-70 cell line = type: functional, cell-based, Homo sapiens; conditions: Homo sapiens, KYSE-70;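 also: cell viability assay read-out, with IC50 expressing suppression of KYSE-70 cell growth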
Description: SANGER: Inhibition of human KYSE-70 cell growth in a cell viability assay.

SK-N-AS = type: functional, cell-based, Homo sapiens; conditions: Homo sapiens, SK-N-AS;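 also: growth inhibition of human SK-N-AS cells, measured with a cell viability assay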
Description: SANGER: Inhibition of human SK-N-AS cell growth in a cell viability assay.

NCI-H2029 = type: functional, cell-based; conditions: Homo sapiens;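 also: Read-out is a viability assay on the cultured cells, and IC50 is the concentration that suppresses cell growth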
Description: SANGER: Inhibition of human NCI-H2029 cell growth in a cell viability assay.

RH-18 = type: functional, cell-based; conditions: Homo sapiens, Rh18;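 also: growth inhibition of human RH-18 cells, read out with a cell viability assay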
Description: SANGER: Inhibition of human RH-18 cell growth in a cell viability assay.

COLO-679 = type: functional, cell-based, Homo sapiens; conditions: Homo sapiens, COLO-679
Description: SANGER: Inhibition of human COLO-679 cell growth in a cell viability assay.

MKN-28 = type: functional, cell-based, Homo sapiens; conditions: Homo sapiens, MKN-28;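 also: cell viability assay read-out, IC50 reflects suppression of growth of human MKN-28 cells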
Description: SANGER: Inhibition of human MKN28 cell growth in a cell viability assay.

HCC70 = type: functional, cell-based, Homo sapiens; conditions: Homo sapiens, HCC70;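 also: cell viability assay measuring how strongly the compound suppresses proliferation of HCC70 cells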
Description: SANGER: Inhibition of human HCC70 cell growth in a cell viability assay.

8-MG-BA = type: functional, cell-based, Homo sapiens; conditions: Homo sapiens, 8-MG-BA;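 also: growth inhibition of 8-MG-BA cells, read out with a cell viability assay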
Description: SANGER: Inhibition of human 8-MG-BA cell growth in a cell viability assay.

CAL-39 = type: functional, cell-based, Homo sapiens; conditions: Homo sapiens, CAL-39;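 also: cell viability assay measuring growth inhibition of CAL-39 cells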
Description: SANGER: Inhibition of human CAL-39 cell growth in a cell viability assay.

NCI-H460 = type: functional, cell-based, Homo sapiens; conditions: Homo sapiens, NCI-H460;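 also: cell viability assay scoring growth inhibition of human NCI-H460 cells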
Description: SANGER: Inhibition of human NCI-H460 cell growth in a cell viability assay.

CAS-1 = type: functional, cell-based, Homo sapiens; conditions: Homo sapiens, CAS-1;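 also: growth inhibition of CAS-1 cells, measured with a cell viability assay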
Description: SANGER: Inhibition of human CAS-1 cell growth in a cell viability assay.

NCI-H2030 = type: functional, cell-based, Homo sapiens; conditions: Homo sapiens, NCI-H2030;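 also: growth inhibition of human NCI-H2030 cells, read out by a cell viability assay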
Description: SANGER: Inhibition of human NCI-H2030 cell growth in a cell viability assay.

A549 = type: functional, cell-based; conditions: Homo sapiens;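 also: growth inhibition of A549 cells, read out with a cell viability assay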
Description: SANGER: Inhibition of human A549 cell growth in a cell viability assay.

NCI-H28 = type: functional, cell-based, Homo sapiens; conditions: Homo sapiens, NCI-H28;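 also: growth inhibition of human NCI-H28 cells, read out as cell viability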
Description: SANGER: Inhibition of human NCI-H28 cell growth in a cell viability assay.

EW-22 = type: functional, cell-based; conditions: Homo sapiens;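 also: growth inhibition of the EW-22 cell line, measured with a cell viability readout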
Description: SANGER: Inhibition of human EW-22 cell growth in a cell viability assay.

KNS-62 = type: functional, cell-based; conditions: Homo sapiens;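 also: inhibition of cell growth, read out with a cell viability assay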
Description: SANGER: Inhibition of human KNS-62 cell growth in a cell viability assay.

NCI-H1666 = type: functional, cell-based; conditions: Homo sapiens;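 also: growth inhibition of the cell line, read out with a cell viability assay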
Description: SANGER: Inhibition of human NCI-H1666 cell growth in a cell viability assay.

SK-OV-3 = type: functional, cell-based, Homo sapiens; conditions: Homo sapiens, SK-OV-3;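 also: growth inhibition of SK-OV-3 human cells, read out with a cell viability assay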
Description: SANGER: Inhibition of human SK-OV-3 cell growth in a cell viability assay.

KGN = type: functional, cell-based, Homo sapiens; conditions: Homo sapiens, KGN;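 also: growth inhibition of KGN cells, read out with a cell viability assay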
Description: SANGER: Inhibition of human KGN cell growth in a cell viability assay.

TI-73 = type: functional, cell-based; conditions: Homo sapiens;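 also: cell viability assay measuring how much compounds suppress growth of the cultured cell line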
Description: SANGER: Inhibition of human TI-73 cell growth in a cell viability assay.

KARPAS-299 = type: functional, cell-based; conditions: Homo sapiens
Description: SANGER: Inhibition of human KARPAS-299 cell growth in a cell viability assay.

EPLC-272H = type: functional, cell-based; conditions: Homo sapiens
Description: SANGER: Inhibition of human EPLC-272H cell growth in a cell viability assay.

MEL-JUSO = type: functional, cell-based, Homo sapiens; conditions: Homo sapiens, MEL-JUSO;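 also: growth inhibition of human MEL-JUSO cells, read out with a cell viability assay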
Description: SANGER: Inhibition of human MEL-JUSO cell growth in a cell viability assay.

SW900 = type: functional, cell-based; conditions: Homo sapiens;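 also: IC50 is the concentration that inhibits SW900 cell growth, measured by a cell viability assay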
Description: SANGER: Inhibition of human SW900 cell growth in a cell viability assay.

MDA-MB-361 = type: functional, cell-based, Homo sapiens; conditions: Homo sapiens, MDA-MB-361
K5 = type: functional, cell-based, Homo sapiens; conditions: Homo sapiens, K5
Description: SANGER: Inhibition of human K5 cell growth in a cell viability assay.

OS-RC-2 = type: functional, cell-based, Homo sapiens; conditions: Homo sapiens, OS-RC-2;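 also: growth inhibition of human OS-RC-2 cells, measured by a cell viability assay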
Description: SANGER: Inhibition of human OS-RC-2 cell growth in a cell viability assay.

D-566MG = type: functional, cell-based; conditions: Homo sapiens

Compound | pIC50 (BEN) | pIC50 (C8166) | pIC50 (EFO-21) | pIC50 (KYSE-70 cell line) | pIC50 (SK-N-AS) | pIC50 (NCI-H2029) | pIC50 (RH-18) | pIC50 (COLO-679) | pIC50 (MKN-28) | pIC50 (HCC70) | pIC50 (8-MG-BA) | pIC50 (CAL-39) | pIC50 (NCI-H460) | pIC50 (CAS-1) | pIC50 (NCI-H2030) | pIC50 (A549) | pIC50 (NCI-H28) | pIC50 (EW-22) | pIC50 (KNS-62) | pIC50 (NCI-H1666) | other results
Cn1cc(C2=C(c3ccc(Cl)cc3Cl)C(=O)NC2=O)c2ccccc21 [SB-216763] | < 5.00 | < 5.00 | < 5.00 | < 5.00 | < 5.00 | < 5.00 | < 5.00 | < 5.00 | < 5.00 | < 5.00 | < 5.00 | < 5.00 | < 5.00 | < 5.00 | < 5.00 | < 5.00 | < 5.00 | < 5.00 | < 5.00 | < 5.00 | pIC50 (SK-OV-3): 5.04; pIC50 (KGN): < 5.00; pIC50 (TI-73): < 5.00; pIC50 (KARPAS-299): < 5.00; pIC50 (EPLC-272H): < 5.00; pIC50 (MEL-JUSO): < 5.00; pIC50 (SW900): < 5.00; pIC50 (MDA-MB-361): < 5.00; pIC50 (K5): 5.81; pIC50 (OS-RC-2): < 5.00; pIC50 (D-566MG): < 5.00
C=CCNC1=C2C[C@@H](C)C[C@H](OC)[C@H](O)[C@@H](C)/C=C(\C)[C@H](OC(N)=O)[C@@H](OC)/C=C\C=C(/C)C(=O)NC(=CC1=O)C2=O [TANESPIMYCIN] | < 6.00 | < 6.00 | < 6.00 | 6.48 | < 6.00 | < 6.00 | < 6.00 | 6.95 | 6.18 | 6.04 | 7.02 | 7.11 | 7.70 | < 6.00 | 7.27 | > 8.41 | 6.93 | < 6.00 | 6.49 | 6.89 | pIC50 (SK-OV-3): 6.76; pIC50 (KGN): < 6.00; pIC50 (TI-73): 7.75; pIC50 (KARPAS-299): < 6.00; pIC50 (EPLC-272H): 7.21; pIC50 (MEL-JUSO): 7.35; pIC50 (SW900): < 6.00; pIC50 (MDA-MB-361): 7.83; pIC50 (K5): 6.61; pIC50 (OS-RC-2): 6.61; pIC50 (D-566MG): 8.41
